# Measurements published in patent US20060069132A1, “Azolecarboxamide herbicides” (priority 2004, published 2006).
# How the values were obtained:
# [1] = system: large crabgrass; assay: Test A pre-/postemergence herbicide test; format: in vivo, Digitaria sanguinalis
# In short: (§1)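 Visual injury rating on a 0–100 scale (0 no effect, 100 complete control) versus untreated controls, about ten days after treatment in greenhouse. Pre: directed soil spray onto seeded sandy loam. Post: spray to runoff on plants 2–10 cm tall at one- to two-leaf stage.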
# [2] = system: barnyardgrass; assay: Test A pre-/postemergence herbicide test; format: in vivo, Echinochloa crus-galli
# In short: as §1
# [3] = system: velvetleaf; assay: Test C pre-/postemergence herbicide test; format: in vivo, Abutilon theophrasti
# In short: (§2)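 Pre- and postemergence application, solvent/surfactant formulation; post at 1- to 4-leaf stage (2–18 cm). Greenhouse 12–14 d. Visual rating vs controls, 0 = no effect, 100 = complete control.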
# [4] = system: giant foxtail; assay: Test C pre-/postemergence herbicide test; format: in vivo, Setaria faberi
# In short: as §2
# [5] = system: lambsquarters; assay: Test C pre-/postemergence herbicide test; format: in vivo, Chenopodium album
# In short: as §2
# [6] = system: redroot pigweed; assay: Test A pre-/postemergence herbicide test; format: in vivo, Amaranthus retroflexus
# In short: as §1
# [7] = system: corn; assay: Test C pre-/postemergence herbicide test; format: in vivo, Zea mays
# In short: as §2
# [8] = system: common (oilseed) sunflower; assay: Test C pre-/postemergence herbicide test; format: in vivo, Helianthus annuus; settings: for Plant response rating, Sunflower: preemergence; for Sunflower plant response rating: Preemergence, scale 0 to 100, 0 no effect, 100 complete control
# In short: as §2
# [9] = system: kochia; assay: Test C pre-/postemergence herbicide test; format: in vivo, Kochia scoparia
# In short: as §2
# [10] = system: common ragweed; assay: Test C pre-/postemergence herbicide test; format: in vivo, Ambrosia elatior; set-up: key to Plant response rating, Ragweed: 0 = no effect, 100 = complete control; settings: for Ragweed plant response rating: Preemergence
# In short: as §2
# [11] = Postemergence, 500 g ai/ha, 0 to 100 scale, 0 no effect, 100 complete control
# [12] = Postemergence, 2000 g ai/ha, 0 to 100 scale, 0 no effect, 100 complete control
# [13] = Preemergence, 2000 g ai/ha, visual rating, 0 to 100 scale (0 no effect, 100 complete control)
# [14] = preemergence, 500 g ai/ha, visual injury, 0 to 100 scale (0 no effect, 100 complete control)
# [15] = 62 g ai/ha, preemergence, scale 0 to 100
# [16] = 125 g ai/ha, scale 0 (no effect) to 100 (complete control), visual, 12 to 14 days, preemergence
# [17] = 250 g ai/ha, scale 0-100, preemergence
# [18] = Preemergence, 500 g ai/ha, scale 0 to 100, 0 no effect, 100 complete control
# [19] = 125 g ai/ha, scale 0 (no effect) to 100 (complete control), visual, 12 to 14 days
# [20] = 500 g ai/ha, scale 0 to 100, 0 no effect, 100 complete control
# [21] = 500 g ai/ha, scale 0 to 100 (0 no effect, 100 complete control), visual, 12 to 14 days, preemergence
# [22] = Postemergence, 500 g ai/ha, scale 0 to 100
# [23] = Postemergence, 250 g ai/ha, scale 0 to 100, 0 no effect, 100 complete control
# [24] = postemergence, 62 g ai/ha, scale 0 to 100
# [25] = postemergence, 125 g ai/ha, scale 0 to 100
smiles,measurement,setting,value
CCN(CC)C(=O)c1cccc(NC(=O)c2sc(C(C)(C)C)nc2C)c1 [Compound 199],"Crabgrass, Large plant response rating",[1]; [11],15
same,"Plant response rating, Crabgrass, Large",[1]; [12],50
same,"Crabgrass, Large plant response rating",[1]; [13],100
same,"Crabgrass, Large plant response rating",[1]; [14],70
same,Barnyardgrass plant response rating,[2]; [11],10
same,"Plant response rating, Barnyardgrass",[2]; [12],80
same,Barnyardgrass plant response rating,[2]; [13],95
same,Barnyardgrass plant response rating,[2]; [14],55
same,"Plant response rating, Velvetleaf",[3]; [15],10
same,"Plant response rating, Velvetleaf",[3]; [16],70
same,"Plant response rating, Velvetleaf",[3]; [17],85
same,Velvetleaf plant response rating,[3]; [18],85
same,"Plant response rating, Foxtail, Giant",[4]; [15],0
same,"Plant response rating, Foxtail, Giant",[4]; [16],10
same,"Plant response rating, Foxtail, Giant",[4]; [17],80
same,"Foxtail, Giant plant response rating",[4]; [18],100
same,"Plant response rating, Lambsquarters",[5]; [15],80
same,"Plant response rating, Lambsquarters",[5]; [16],95
same,"Plant response rating, Lambsquarters",[5]; [17],100
same,Lambsquarters plant response rating,[5]; [18],100
same,Pigweed plant response rating,[6]; [11],80
same,"Plant response rating, Pigweed",[6]; [12],80
same,Pigweed plant response rating,[6]; [13],100
same,Pigweed plant response rating,[6]; [14],100
same,"Plant response rating, Corn",[7]; [15],0
same,"Plant response rating, Corn",[7]; [16],0
same,"Plant response rating, Corn",[7]; [17],0
same,Corn plant response rating,[7]; [18],0
same,"Plant response rating, Sunflower","[8]; 62 g ai/ha, scale 0 to 100",0
same,"Plant response rating, Sunflower",[8]; [19],0
same,"Plant response rating, Sunflower","[8]; 250 g ai/ha, scale 0-100",0
same,Sunflower plant response rating,[8]; 500 g ai/ha,0
same,"Plant response rating, Kochia",[9]; [15],80
same,"Plant response rating, Kochia",[9]; [16],85
same,"Plant response rating, Kochia",[9]; [17],90
same,Kochia plant response rating,[9]; [18],90
same,"Plant response rating, Ragweed",[10]; [15],55
same,"Plant response rating, Ragweed",[10]; [16],60
same,"Plant response rating, Ragweed",[10]; [17],80
same,Ragweed plant response rating,[10]; [20],80
CCc1nc(C(C)(C)C)sc1C(=O)Nc1cccc(C(=O)N(CC)CC)c1 [Compound 205],"Crabgrass, Large plant response rating",[1]; [11],10
same,"Plant response rating, Crabgrass, Large",[1]; [12],20
same,"Crabgrass, Large plant response rating",[1]; [13],95
same,"Crabgrass, Large plant response rating",[1]; [14],80
same,Barnyardgrass plant response rating,[2]; [11],45
same,"Plant response rating, Barnyardgrass",[2]; [12],65
same,Barnyardgrass plant response rating,[2]; [13],90
same,Barnyardgrass plant response rating,[2]; [14],80
same,"Plant response rating, Velvetleaf",[3]; [15],10
same,"Plant response rating, Velvetleaf",[3]; [16],40
same,"Plant response rating, Velvetleaf",[3]; [17],60
same,Velvetleaf plant response rating,[3]; [18],100
same,"Plant response rating, Foxtail, Giant",[4]; [15],0
same,"Plant response rating, Foxtail, Giant",[4]; [16],10
same,"Plant response rating, Foxtail, Giant",[4]; [17],80
same,"Foxtail, Giant plant response rating",[4]; [18],95
same,"Plant response rating, Lambsquarters",[5]; [15],85
same,"Plant response rating, Lambsquarters",[5]; [16],90
same,"Plant response rating, Lambsquarters",[5]; [17],90
same,Lambsquarters plant response rating,[5]; [18],100
same,Pigweed plant response rating,[6]; [11],50
same,"Plant response rating, Pigweed",[6]; [12],65
same,Pigweed plant response rating,[6]; [13],100
same,Pigweed plant response rating,[6]; [14],100
same,"Plant response rating, Corn",[7]; [15],0
same,"Plant response rating, Corn",[7]; [16],0
same,"Plant response rating, Corn",[7]; [17],0
same,Corn plant response rating,[7]; [18],40
same,"Plant response rating, Sunflower","[8]; 62 g ai/ha, scale 0 to 100",0
same,"Plant response rating, Sunflower",[8]; [19],0
same,"Plant response rating, Sunflower","[8]; 250 g ai/ha, scale 0-100",0
same,Sunflower plant response rating,[8]; 500 g ai/ha,0
same,"Plant response rating, Kochia",[9]; [15],90
same,"Plant response rating, Kochia",[9]; [16],90
same,"Plant response rating, Kochia",[9]; [17],90
same,Kochia plant response rating,[9]; [18],90
same,"Plant response rating, Ragweed",[10]; [15],0
same,"Plant response rating, Ragweed",[10]; [16],20
same,"Plant response rating, Ragweed",[10]; [17],50
same,Ragweed plant response rating,[10]; [20],100
CCc1nc(C(C)(C)C)sc1C(=O)Nc1cccc(C(=O)NCC2CC2)c1 [Compound 212],"Crabgrass, Large plant response rating",[1]; [11],45
same,"Plant response rating, Crabgrass, Large",[1]; [12],60
same,"Crabgrass, Large plant response rating",[1]; [13],95
same,"Crabgrass, Large plant response rating",[1]; [14],90
same,Barnyardgrass plant response rating,[2]; [11],50
same,"Plant response rating, Barnyardgrass",[2]; [12],90
same,Barnyardgrass plant response rating,[2]; [13],85
same,Barnyardgrass plant response rating,[2]; [14],80
same,"Plant response rating, Velvetleaf",[3]; [15],20
same,"Plant response rating, Velvetleaf",[3]; [16],100
same,"Plant response rating, Velvetleaf",[3]; [17],100
same,"Plant response rating, Velvetleaf",[3]; [21],100
same,Velvetleaf plant response rating,[3]; [22],70
same,"Plant response rating, Velvetleaf",[3]; [23],50
same,"Plant response rating, Velvetleaf",[3]; [24],0
same,"Plant response rating, Foxtail, Giant",[4]; [15],0
same,"Plant response rating, Foxtail, Giant",[4]; [16],20
same,"Plant response rating, Foxtail, Giant",[4]; [17],20
same,"Plant response rating, Foxtail, Giant",[4]; [21],95
same,"Foxtail, Giant plant response rating",[4]; [22],60
same,"Plant response rating, Foxtail, Giant",[4]; [23],50
same,"Plant response rating, Foxtail, Giant",[4]; [25],20
same,"Plant response rating, Foxtail, Giant",[4]; [24],10
same,"Plant response rating, Lambsquarters",[5]; [15],100
same,"Plant response rating, Lambsquarters",[5]; [16],100
same,"Plant response rating, Lambsquarters",[5]; [17],100
same,"Plant response rating, Lambsquarters",[5]; [21],100
same,Lambsquarters plant response rating,[5]; [22],100
same,"Plant response rating, Lambsquarters",[5]; [23],90
same,"Plant response rating, Lambsquarters",[5]; [25],90
same,"Plant response rating, Lambsquarters",[5]; [24],80
same,Pigweed plant response rating,[6]; [11],75
same,"Plant response rating, Pigweed",[6]; [12],90
same,Pigweed plant response rating,[6]; [13],100
same,Pigweed plant response rating,[6]; [14],100
same,"Plant response rating, Corn",[7]; [15],0
same,"Plant response rating, Corn",[7]; [16],0
same,"Plant response rating, Corn",[7]; [17],30
same,"Plant response rating, Corn",[7]; [21],40
same,Corn plant response rating,[7]; [22],40
same,"Plant response rating, Corn",[7]; [23],40
same,"Plant response rating, Corn",[7]; [25],35
same,"Plant response rating, Corn",[7]; [24],15
same,"Plant response rating, Sunflower","[8]; 62 g ai/ha, scale 0 to 100",0
same,"Plant response rating, Sunflower",[8]; [19],0
same,"Plant response rating, Sunflower","[8]; 250 g ai/ha, scale 0-100",0
same,"Plant response rating, Sunflower","[8]; 500 g ai/ha, scale 0 to 100 (0 no effect, 100 complete control), visual, 12 to 14 days",0
same,"Plant response rating, Kochia",[9]; [15],85
same,"Plant response rating, Kochia",[9]; [16],85
same,"Plant response rating, Kochia",[9]; [17],90
same,"Plant response rating, Kochia",[9]; [21],95
same,Kochia plant response rating,[9]; [22],90
same,"Plant response rating, Kochia",[9]; [23],90
same,"Plant response rating, Kochia",[9]; [25],80
same,"Plant response rating, Kochia",[9]; [24],80
same,"Plant response rating, Ragweed",[10]; [15],0
same,"Plant response rating, Ragweed",[10]; [16],0
same,"Plant response rating, Ragweed",[10]; [17],30
same,"Plant response rating, Ragweed",[10]; [21],95
same,"Plant response rating, Ragweed",[10]; [23],80
same,"Plant response rating, Ragweed",[10]; [25],60
same,"Plant response rating, Ragweed",[10]; [24],60
